PMC8151276, “An Integrated Approach toward NanoBRET Tracers for Analysis of GPCR Ligand Engagement” (Molecules, 2021)

Assays:
Type in all cases: binding
[1] = biological target: T1, PTGER3 (Homo sapiens, UniProt P43115); assay: NanoBRET screen HiBiT-PTGER3 in HEK293
T1 construct: purchased Promega (in-house HiBiT-GPCR construct library, NanoBRET)
T1 sequence (P43115 1-390): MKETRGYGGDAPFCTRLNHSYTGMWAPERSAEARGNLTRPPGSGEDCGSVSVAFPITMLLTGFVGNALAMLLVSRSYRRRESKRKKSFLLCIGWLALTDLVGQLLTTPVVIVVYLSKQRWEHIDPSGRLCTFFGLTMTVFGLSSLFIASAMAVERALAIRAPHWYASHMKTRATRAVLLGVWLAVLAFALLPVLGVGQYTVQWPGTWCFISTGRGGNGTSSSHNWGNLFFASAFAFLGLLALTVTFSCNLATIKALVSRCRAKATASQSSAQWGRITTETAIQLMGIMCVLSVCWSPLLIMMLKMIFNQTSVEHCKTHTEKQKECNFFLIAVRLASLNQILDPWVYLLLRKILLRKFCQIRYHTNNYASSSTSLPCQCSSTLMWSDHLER
Procedure: (§1) Each tracer candidate was screened across the entire library of HiBiT-GPCR constructs using NanoBRET as the detection modality. As depicted in Figure 4A, the specificity of interactions was evaluated through decrease in BRET due to competitive displacement of a bound tracer by excess parental compound. Each tracer was analyzed for binding to each HiBiT-GPCR fusion in the absence and in the presence of competing parental compound. Briefly, HEK293 cells were transfected with HiBiT-GPCR constructs diluted into promoterless DNA to reduce expression and maximize translocation to the cell surface. Each tracer candidate was then screened at concentrations of 1 μM and 0.1 μM across cells expressing these fusions. Cells were treated for 1.5 h with tracer either alone or in the presence of 20 μM competing parental compound (i.e., control). BRET was measured upon addition of purified LgBiT and subsequent complementation with HiBiT genetically fused to a GPCR. The specificity of interactions was assessed through a decrease in BRET signal due to competitive displacement of the bound tracer. To further gauge the robustness of these interactions, the fold response over the control (i.e., BRETtracer/BRETcontrol) was calculated. We chose a 1.5-fold response, which translates to ≥7-fold signal over noise as the minimal threshold required to score an interaction as positive. […]. Below we highlight the screening results obtained for our exemplary fluorescent tracers based on Clozapine, Amitriptyline and AZD1283.
(§2) HiBiT-GPCR DNA constructs were diluted in 10 mM Tris pH 8 to a final concentration of 0.01 μg/μL, arrayed in 96-well plates and stored at −20 °C. For transfection, HEK293 cells were suspended in Opti-MEM (without phenol red) supplemented with 2% fetal bovine serum (Seradigm) and 100 units/mL penicillin–streptomycin (Gibco) at a final concentration of 220,000 cells/mL and dispensed into white 96-well plates at 90 μL/well. Subsequent transfections and screens were carried using an Agilent Bravo Automated Liquid Handling Platform. First, the 96-well HiBiT DNA arrays were diluted 25-fold in Opti-MEM (without serum or phenol red) to a final concentration of 0.0004 μg/μL and 20 μL of the diluted DNAs were transferred into new 96-well plates. Next, promoterless carrier DNA (1 μg/μL) was diluted 25-fold (0.04 μg/μL) and then dispensed into the diluted arrays at 20 μL/well. Following brief mixing, Viafect transfection reagent (Promega) diluted 16-fold into Opti-MEM was dispensed into the plates at 40 μL/well. After mixing by pipetting, plates were incubated for 10 min on the pipetting station deck. The DNA-transfection reagent complexes were then added to plates containing cells. To facilitate the screen, 10 μL of DNA-transfection reagent complexes were added in duplicates to the top 4 and bottom 4 rows, resulting in two identical 48-well arrays per plate. Plates with transfected cells were incubated for 18–20 h at 37 °C/5% CO2. A screen of each tracer across the entire library using two different concentrations requires duplicate plates of transfected cells. Depending on the number of tracers being screened, transfections can be scaled up using the same ratios. The next day, for each tracer, four 20× screening solutions in tracer dilution buffer (Promega) were prepared: two duplicates at final concentration of 20 μM and two duplicates at a final concentration of 2 μM. A competing unmodified compound was added to one of each duplicate at a final concentration of 400 μM. The four resulting solutions were diluted 4-fold in Opti-MEM without serum or phenol red to generate 5× solutions (5 µM and 0.5 µM tracer +/− 100 μM competing compound). To screen the library, a BioTek MultiFlo FX liquid dispenser was used to dispense 22.5 µL of tracer solution to the top 4 rows and 22.5 µL tracer + competing compound solution to the 4 bottom rows. Plates were briefly mixed on an orbital shaker and incubated for 1.5 h at room temperature. […]

[2] = biological target: T2, MTNR1B (Homo sapiens, UniProt P49286); assay: NanoBRET screen HiBiT-MTNR1B in HEK293
T2 construct: purchased Promega (in-house HiBiT-GPCR construct library, NanoBRET)
T2 sequence (P49286 1-362): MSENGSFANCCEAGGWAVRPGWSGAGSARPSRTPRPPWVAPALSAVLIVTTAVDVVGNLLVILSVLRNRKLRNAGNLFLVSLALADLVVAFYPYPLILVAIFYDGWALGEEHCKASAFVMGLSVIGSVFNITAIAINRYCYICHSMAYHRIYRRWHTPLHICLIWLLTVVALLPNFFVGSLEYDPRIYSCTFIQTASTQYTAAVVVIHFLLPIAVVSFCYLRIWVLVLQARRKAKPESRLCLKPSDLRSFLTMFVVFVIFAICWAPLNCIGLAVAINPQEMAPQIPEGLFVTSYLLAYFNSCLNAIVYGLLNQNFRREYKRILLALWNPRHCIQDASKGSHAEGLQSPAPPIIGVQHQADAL
Procedure: as §1, §2

[3] = biological target: T3, OXTR (Homo sapiens, UniProt P30559); assay: NanoBRET screen HiBiT-OXTR in HEK293
T3 construct: purchased Promega (in-house HiBiT-GPCR construct library, NanoBRET)
T3 sequence (P30559 1-389): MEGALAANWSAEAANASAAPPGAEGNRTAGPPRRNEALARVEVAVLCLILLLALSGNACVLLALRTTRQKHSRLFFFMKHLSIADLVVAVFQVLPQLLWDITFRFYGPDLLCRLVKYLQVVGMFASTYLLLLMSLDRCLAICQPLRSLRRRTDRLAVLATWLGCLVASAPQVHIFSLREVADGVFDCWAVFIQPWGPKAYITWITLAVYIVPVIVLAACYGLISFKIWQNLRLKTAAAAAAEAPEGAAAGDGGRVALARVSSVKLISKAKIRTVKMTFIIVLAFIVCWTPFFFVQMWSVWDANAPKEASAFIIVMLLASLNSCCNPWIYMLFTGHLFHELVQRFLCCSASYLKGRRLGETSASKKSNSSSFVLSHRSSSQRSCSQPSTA
Procedure: as §1, §2

N#CN=C(NCCCOc1cccc(CN2CCCCC2)c1)NCCNC(=O)CCOCCOCCOCCOCCNC(=O)CCc1ccc2n1[B-](F)(F)[N+]1=C(c3ccc[nH]3)C=CC1=C2 [Aminopotentidine-2-NB590]
NanoBRET Fold Response ([1]; PTGER3, tracer 0.1μM): 1.01 | NanoBRET Fold Response ([1]; PTGER3, tracer 1μM): 1.01 | NanoBRET Fold Response ([2]; MTNR1B, tracer 0.1μM): 0.99 | NanoBRET Fold Response ([2]; MTNR1B, tracer 1μM): 0.99 | NanoBRET Fold Response ([3]; OXTR, tracer 0.1μM): 1.06 | NanoBRET Fold Response ([3]; OXTR, tracer 1μM): 1.04

O=C(CCc1ccc2n1[B-](F)(F)[N+]1=C(c3ccc[nH]3)C=CC1=C2)NCc1ccc(C(=O)NCCOCCOCCNCC(O)COc2cccc3ccccc23)cc1 (stereo not drawn) [Propranolol-3-NB590]
NanoBRET Fold Response ([1]; PTGER3, 0.1μM): 1.04 | NanoBRET Fold Response ([1]; PTGER3, 1μM): 1.08 | NanoBRET Fold Response ([2]; MTNR1B, 0.1μM): 0.96 | NanoBRET Fold Response ([2]; MTNR1B, 1μM): 0.98 | NanoBRET Fold Response ([3]; OXTR, 0.1μM): 1.04 | NanoBRET Fold Response ([3]; OXTR, 1μM): 0.98

O=C(CCc1ccc2n1[B-](F)(F)[N+]1=C(c3ccc[nH]3)C=CC1=C2)NCc1ccc(C(=O)NCCOCCC(=O)N[C@@H]2CC[C@@]3(O)[C@H]4Cc5ccc(O)c6c5[C@@]3(CCN4CC3CC3)[C@H]2O6)cc1 [Naltrexone-3-NB590]
NanoBRET Fold Response ([1]; PTGER3, tracer 0.1μM): 0.94 | NanoBRET Fold Response ([1]; PTGER3, tracer 1μM): 0.79 | NanoBRET Fold Response ([2]; MTNR1B, tracer 0.1μM): 0.94 | NanoBRET Fold Response ([2]; MTNR1B, tracer 1μM): 0.66 | NanoBRET Fold Response ([3]; OXTR, tracer 0.1μM): 0.99 | NanoBRET Fold Response ([3]; OXTR, tracer 1μM): 0.91

COc1ccccc1N1CCN(CCCCN2C(=O)c3ccc(CNC(=O)CCOCCNC(=O)c4ccc(CNC(=O)CCc5ccc6n5[B-](F)(F)[N+]5=C(c7ccc[nH]7)C=CC5=C6)cc4)cc3C2=O)CC1 [NAN-190-3-NB590]
NanoBRET Fold Response ([1]; PTGER3, tracer 0.1μM): 0.99 | NanoBRET Fold Response ([1]; PTGER3, tracer 1μM): 0.64 | NanoBRET Fold Response ([2]; MTNR1B, tracer 0.1μM): 1.20 | NanoBRET Fold Response ([2]; MTNR1B, tracer 1μM): 1.15 | NanoBRET Fold Response ([3]; OXTR, tracer 0.1μM): 1.10 | NanoBRET Fold Response ([3]; OXTR, tracer 1μM): 1.05

Cc1cc2c(s1)Nc1ccccc1N=C2N1CCN(CCCNC(=O)CCOCCOCCOCCOCCNC(=O)CCc2ccc3n2[B-](F)(F)[N+]2=C(c4ccc[nH]4)C=CC2=C3)CC1 [Olanzapine-a-2-NB590]
NanoBRET Fold Response ([1]; PTGER3, tracer 0.1μM): 1.00 | NanoBRET Fold Response ([1]; PTGER3, tracer 1μM): 0.95 | NanoBRET Fold Response ([2]; MTNR1B, tracer 0.1μM): 0.96 | NanoBRET Fold Response ([2]; MTNR1B, tracer 1μM): 0.94 | NanoBRET Fold Response ([3]; OXTR, tracer 0.1μM): 1.00 | NanoBRET Fold Response ([3]; OXTR, tracer 1μM): 0.96

CCCn1c(=O)c2[nH]c(-c3ccc(OCC(=O)NCCNC(=O)CCOCCNC(=O)c4ccc(CNC(=O)CCc5ccc6n5[B-](F)(F)[N+]5=C(c7ccc[nH]7)C=CC5=C6)cc4)cc3)nc2n(CCC)c1=O [XAC-3-NB590]
NanoBRET Fold Response ([1]; PTGER3, tracer 0.1μM): 0.97 | NanoBRET Fold Response ([1]; PTGER3, tracer 1μM): 1.05 | NanoBRET Fold Response ([2]; MTNR1B, tracer 0.1μM): 1.07 | NanoBRET Fold Response ([2]; MTNR1B, tracer 1μM): 1.05 | NanoBRET Fold Response ([3]; OXTR, tracer 0.1μM): 1.04 | NanoBRET Fold Response ([3]; OXTR, tracer 1μM): 0.98

COc1ccc2c(n1)c(CCNC(C)=O)cn2CCNC(=O)CCc1ccc2n1[B-](F)(F)[N+]1=C(c3ccc[nH]3)C=CC1=C2 [Azamelatonin-1-NB590]
NanoBRET Fold Response ([1]; 0.1μM tracer): 1.00 | NanoBRET Fold Response ([1]; 1μM tracer): 1.25 | NanoBRET Fold Response ([2]; 0.1μM tracer): 1.07 | NanoBRET Fold Response ([2]; 1μM tracer): 1.12 | NanoBRET Fold Response ([3]; 0.1μM tracer): 1.11 | NanoBRET Fold Response ([3]; 1μM tracer): 0.94
